From patent US9056843B2, “Trifluoromethyl-oxadiazole derivatives and their use in the treatment of disease” (NOVARTIS AG, priority 2011, dated 2015)

How the values were obtained:
Format in all cases: biochemical
[1] = molecular target: Human recombinant full length HDAC1 (Homo sapiens (Human), UniProt Q13547); assay: Test 3: HDAC1 assay; details: substrate 5 μM acetyl-Gly-Ala-Lys(acetyl)-AMC
Method: (§1) Control wells with HDAC4 only (positive control) and without HDAC4 (negative control) were included on the microplate. Bovine trypsin (4.5 μl of a 300 nM solution) was added and the plate incubated for additional 15 minutes at room temperature. The plate was placed in a fluorescence microplate reader, and read at an excitation wavelength of 360 nm and an emission wavelength of 450 nm with a 10 nm bandpath. Fluorescence values for all wells containing HDAC4 (positive control and wells with test compound) were corrected by subtracting negative control fluorescence values, and IC50 values were calculated by fitting the dose-response curves to a 4-parameter logistic function.
Test 3: HDAC1 Assay Description
A similar assay procedure as described in Test 2 was used for HDAC1. Human recombinant full length HDAC1 expressed in a baculovirus expression system was purchased from BPS BioSciences (San Diego, Calif., U.S.A.). The substrate used in the […] assay was 5 μM of acetyl-Gly-Ala-Lys(acetyl)-AMC.

[2] = molecular target: Human recombinant full length HDAC6 (Homo sapiens (Human), UniProt Q9UBN7); assay: Test 4: HDAC6 assay; details: Test 4; substrate 5 μM acetyl-Gly-Ala-Lys(acetyl)-AMC
Chain of Human recombinant full length HDAC6 (Q9UBN7 whole entry): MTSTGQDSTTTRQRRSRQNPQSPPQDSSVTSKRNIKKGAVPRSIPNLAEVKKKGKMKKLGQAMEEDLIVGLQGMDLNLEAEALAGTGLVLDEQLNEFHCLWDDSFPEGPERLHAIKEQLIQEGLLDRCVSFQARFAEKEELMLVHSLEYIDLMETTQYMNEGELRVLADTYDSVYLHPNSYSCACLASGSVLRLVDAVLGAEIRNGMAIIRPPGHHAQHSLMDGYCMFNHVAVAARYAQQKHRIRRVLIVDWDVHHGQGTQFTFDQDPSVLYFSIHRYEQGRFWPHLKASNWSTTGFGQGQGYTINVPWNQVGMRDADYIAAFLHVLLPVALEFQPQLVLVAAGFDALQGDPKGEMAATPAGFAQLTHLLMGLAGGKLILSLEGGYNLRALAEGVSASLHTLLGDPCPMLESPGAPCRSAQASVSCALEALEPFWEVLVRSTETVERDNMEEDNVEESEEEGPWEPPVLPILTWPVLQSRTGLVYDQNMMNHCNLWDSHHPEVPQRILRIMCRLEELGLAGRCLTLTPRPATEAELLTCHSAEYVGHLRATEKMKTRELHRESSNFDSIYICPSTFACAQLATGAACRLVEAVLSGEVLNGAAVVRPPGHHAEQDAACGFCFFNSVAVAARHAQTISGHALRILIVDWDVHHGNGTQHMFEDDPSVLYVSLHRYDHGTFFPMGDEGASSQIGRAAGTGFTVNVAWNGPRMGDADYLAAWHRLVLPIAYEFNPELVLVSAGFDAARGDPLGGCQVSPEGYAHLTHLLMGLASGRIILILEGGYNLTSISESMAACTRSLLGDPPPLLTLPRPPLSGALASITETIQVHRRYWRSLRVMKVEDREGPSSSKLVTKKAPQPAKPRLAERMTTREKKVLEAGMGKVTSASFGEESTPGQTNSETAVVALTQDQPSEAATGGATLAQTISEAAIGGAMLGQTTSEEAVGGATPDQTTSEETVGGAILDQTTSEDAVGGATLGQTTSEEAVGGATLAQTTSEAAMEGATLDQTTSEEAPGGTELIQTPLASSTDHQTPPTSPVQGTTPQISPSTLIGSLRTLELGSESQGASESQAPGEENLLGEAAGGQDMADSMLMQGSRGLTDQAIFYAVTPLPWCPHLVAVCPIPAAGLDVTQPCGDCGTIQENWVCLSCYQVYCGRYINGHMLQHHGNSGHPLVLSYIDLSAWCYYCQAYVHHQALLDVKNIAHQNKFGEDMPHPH
Method: as §1
Test 4: HDAC6 Assay Description
A similar assay procedure as described in Test 2 was used for HDAC6. Human recombinant full length HDAC6 expressed in a baculovirus expression system was purchased from BPS BioSciences (San Diego, Calif., U.S.A.). The substrate used in the […] assay was 5 μM of acetyl-Gly-Ala-Lys(acetyl)-AMC.

Human recombinant HDAC4 = Human recombinant HDAC4 (Homo sapiens (Human), UniProt P56524); assay: Test 2: HDAC4 assay (fluorogenic substrate, 5 μM acetyl-Gly-Ala-Lys(ε-trifluoroacetyl)-AMC); details: Test 2 (values without asterisk)
Chain of Human recombinant HDAC4 (P56524 2-1084): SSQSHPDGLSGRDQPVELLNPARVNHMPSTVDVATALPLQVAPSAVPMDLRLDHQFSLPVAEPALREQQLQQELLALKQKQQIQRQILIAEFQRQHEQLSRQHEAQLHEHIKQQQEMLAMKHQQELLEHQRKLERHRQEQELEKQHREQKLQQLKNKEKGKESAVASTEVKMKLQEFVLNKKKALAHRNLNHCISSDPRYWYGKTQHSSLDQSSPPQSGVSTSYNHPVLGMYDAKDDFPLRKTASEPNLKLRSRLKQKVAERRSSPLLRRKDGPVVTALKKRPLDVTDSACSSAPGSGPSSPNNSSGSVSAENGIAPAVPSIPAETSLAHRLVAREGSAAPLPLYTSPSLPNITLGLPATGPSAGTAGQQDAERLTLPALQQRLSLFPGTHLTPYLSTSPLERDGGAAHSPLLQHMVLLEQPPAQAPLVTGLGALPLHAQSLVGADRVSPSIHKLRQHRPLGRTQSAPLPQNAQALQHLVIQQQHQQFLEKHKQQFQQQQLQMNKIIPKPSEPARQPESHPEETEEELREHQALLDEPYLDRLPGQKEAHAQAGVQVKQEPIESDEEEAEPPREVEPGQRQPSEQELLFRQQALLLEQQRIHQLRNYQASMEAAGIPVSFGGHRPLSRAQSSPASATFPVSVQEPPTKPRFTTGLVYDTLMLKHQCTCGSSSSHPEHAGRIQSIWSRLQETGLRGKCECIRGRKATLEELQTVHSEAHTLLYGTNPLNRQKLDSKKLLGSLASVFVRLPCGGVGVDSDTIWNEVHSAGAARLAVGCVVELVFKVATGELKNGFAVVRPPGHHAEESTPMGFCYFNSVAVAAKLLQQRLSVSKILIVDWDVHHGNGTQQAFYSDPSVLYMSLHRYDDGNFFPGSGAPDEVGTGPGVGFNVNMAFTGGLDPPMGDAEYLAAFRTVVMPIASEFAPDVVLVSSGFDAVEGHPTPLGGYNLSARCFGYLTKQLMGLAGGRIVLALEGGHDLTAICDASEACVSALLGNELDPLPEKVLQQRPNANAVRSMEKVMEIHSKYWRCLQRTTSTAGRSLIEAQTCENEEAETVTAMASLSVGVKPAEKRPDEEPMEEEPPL
Method: Test 2: HDAC4 Assay Description
as §1

Chain of Human recombinant full length HDAC1 (Q13547 whole entry): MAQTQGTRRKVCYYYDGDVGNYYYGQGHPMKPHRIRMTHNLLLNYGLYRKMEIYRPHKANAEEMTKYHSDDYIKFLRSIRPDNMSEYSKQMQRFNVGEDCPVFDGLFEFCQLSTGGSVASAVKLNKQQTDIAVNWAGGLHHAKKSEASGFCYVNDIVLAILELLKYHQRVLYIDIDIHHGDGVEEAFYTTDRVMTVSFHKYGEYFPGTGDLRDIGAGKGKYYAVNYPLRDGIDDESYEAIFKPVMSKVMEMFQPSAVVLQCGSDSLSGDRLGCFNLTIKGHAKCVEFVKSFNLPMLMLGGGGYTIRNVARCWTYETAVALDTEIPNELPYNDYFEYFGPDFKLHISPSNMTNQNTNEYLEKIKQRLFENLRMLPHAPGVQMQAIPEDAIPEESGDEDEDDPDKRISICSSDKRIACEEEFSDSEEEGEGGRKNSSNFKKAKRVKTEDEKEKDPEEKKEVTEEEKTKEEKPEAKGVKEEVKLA

SMILES | IC50 [1] [µM] | IC50 [2] [µM] | IC50 (Human recombinant HDAC4) [µM]
Cc1cc(NC(=O)c2ccc(-c3noc(C(F)(F)F)n3)cc2)cc(C)n1 [Example 68, N-(2,6-dimethylpyridin-4-yl)-4-(5-(trifluoromethyl)-1,2,4-oxadiazol-3-yl)benzamide] | > 10 | 5.3 | 0.17
CC(C)(C)c1cc(NC(=O)c2ccc(-c3noc(C(F)(F)F)n3)cc2)ccn1 [Example 69, N-(2-(tert-butyl)pyridin-4-yl)-4-(5-(trifluoromethyl)-1,2,4-oxadiazol-3-yl)benzamide] | > 10 | 6.8 | 0.29
O=C(Nc1ccnc(F)c1)c1ccc(-c2noc(C(F)(F)F)n2)cc1 [Example 71, N-(2-fluoropyridin-4-yl)-4-(5-(trifluoromethyl)-1,2,4-oxadiazol-3-yl)benzamide] | > 10 | > 10 | 0.92
O=C(Nc1ccnc(O)c1)c1ccc(-c2noc(C(F)(F)F)n2)cc1 [Example 72, N-(2-hydroxypyridin-4-yl)-4-(5-(trifluoromethyl)-1,2,4-oxadiazol-3-yl)benzamide] | > 10 | > 10 | 0.14
N#Cc1cc(NC(=O)c2ccc(-c3noc(C(F)(F)F)n3)cc2)ccn1 [Example 73, N-(2-cyanopyridin-4-yl)-4-(5-(trifluoromethyl)-1,2,4-oxadiazol-3-yl)benzamide] | > 10 | 6.1 | 0.053
O=C(Nc1ccnc(C(F)(F)F)c1)c1ccc(-c2noc(C(F)(F)F)n2)cc1 [Example 74, 4-(5-(Trifluoromethyl)-1,2,4-oxadiazol-3-yl)-N-(2-(trifluoromethyl)pyridin-4-yl)benzamide] | > 10 | 8.6 | 0.19
O=C(Nc1ccnc(Cl)c1)c1ccc(-c2noc(C(F)(F)F)n2)cc1 [Example 75, N-(2-chloropyridin-4-yl)-4-(5-(trifluoromethyl)-1,2,4-oxadiazol-3-yl)benzamide] | > 10 | > 10 | 0.16
O=C(NC1CCNCC1)c1ccc(-c2noc(C(F)(F)F)n2)cc1 [Example 76, N-(piperidin-4-yl)-4-(5-(trifluoromethyl)-1,2,4-oxadiazol-3-yl)benzamide] | > 10 | 3.9 | 0.15
NC1CCCCC1NC(=O)c1ccc(-c2noc(C(F)(F)F)n2)cc1 (stereo not drawn) [Example 77, N-(2-aminocyclohexyl)-4-(5-(trifluoromethyl)-1,2,4-oxadiazol-3-yl)benzamide] | > 10 | > 10 | 0.35
O=C(NCC1CCCCN1)c1ccc(-c2noc(C(F)(F)F)n2)cc1 (stereo not drawn) [Example 78, N-(piperidin-2-ylmethyl)-4-(5-(trifluoromethyl)-1,2,4-oxadiazol-3-yl)benzamide] | > 10 | 7 | 0.03
O=C(NC1CCCNC1)c1ccc(-c2noc(C(F)(F)F)n2)cc1 (stereo not drawn) [Example 79, N-(piperidin-3-yl)-4-(5-(trifluoromethyl)-1,2,4-oxadiazol-3-yl)benzamide] | > 10 | > 10 | 0.8
O=C(NC1CCNC1)c1ccc(-c2noc(C(F)(F)F)n2)cc1 (stereo not drawn) [Example 80, N-(pyrrolidin-3-yl)-4-(5-(trifluoromethyl)-1,2,4-oxadiazol-3-yl)benzamide] | > 10 | > 10 | 0.47
C[C@H](CN(C)C)NC(=O)c1ccc(-c2noc(C(F)(F)F)n2)cc1 [Example 81, (R)—N-(1-(dimethylamino)propan-2-yl)-4-(5-(trifluoromethyl)-1,2,4-oxadiazol-3-yl)benzamide] | > 10 | > 10 | 0.034
C[C@@H](CN(C)C)NC(=O)c1ccc(-c2noc(C(F)(F)F)n2)cc1 [Example 82, (S)—N-(1-(dimethylamino)propan-2-yl)-4-(5-(trifluoromethyl)-1,2,4-oxadiazol-3-yl)benzamide] | > 10 | > 10 | 0.12
